In ChEMBL document CHEMBL5550137 (Bioorg Med Chem Lett, 2024):
Values after ≈ are worked out from the molar mass of the structure shown.

biological target: T1, Cytochrome P450 1B1 (Homo sapiens, UniProt Q16678); assay: Inhibition of recombinant human CYP1B1 using 7-ER as substrate in presence of NADPH by fluorescence based assay; conditions: not given
T1 sequence (Q16678 whole entry): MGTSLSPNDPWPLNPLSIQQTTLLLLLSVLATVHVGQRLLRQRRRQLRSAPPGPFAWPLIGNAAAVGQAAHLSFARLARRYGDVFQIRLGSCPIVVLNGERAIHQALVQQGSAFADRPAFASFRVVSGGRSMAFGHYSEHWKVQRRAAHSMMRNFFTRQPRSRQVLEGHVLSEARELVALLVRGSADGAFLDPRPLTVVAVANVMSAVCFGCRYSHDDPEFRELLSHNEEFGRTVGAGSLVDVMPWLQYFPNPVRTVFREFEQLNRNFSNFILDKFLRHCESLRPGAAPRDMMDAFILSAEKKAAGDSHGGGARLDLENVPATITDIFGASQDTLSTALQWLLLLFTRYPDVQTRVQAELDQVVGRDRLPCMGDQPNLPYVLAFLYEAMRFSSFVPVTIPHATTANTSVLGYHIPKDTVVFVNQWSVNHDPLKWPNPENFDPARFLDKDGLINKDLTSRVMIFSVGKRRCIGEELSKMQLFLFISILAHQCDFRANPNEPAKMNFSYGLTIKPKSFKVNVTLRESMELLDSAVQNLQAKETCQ

SMILES | IC50 [nM]
O=C1c2cccc3c(O)ccc(c23)C(=O)N1Cc1cncnc1 | 56.6
O=C1c2cccc3c(Br)ccc(c23)C(=O)N1Cc1nccs1 | 36.7
O=C1c2cccc3c(Br)ccc(c23)C(=O)N1Cc1cnccn1 | 156
CCN1C(=O)c2cccc3cccc(c23)C1=O | 605
CCN1C(=O)c2cccc3c(O)ccc(c23)C1=O | > 1000
O=C1c2cccc3c(Br)ccc(c23)C(=O)N1Cc1ncco1 | 31
O=C1c2cccc3c(Br)ccc(c23)C(=O)N1CC1CN(Cc2ccccc2)CCO1 (stereo unspecified) | > 1000
O=C1c2cccc3c(Br)ccc(c23)C(=O)N1Cc1c[nH]cn1 | 173
O=C1c2cccc3c(Br)ccc(c23)C(=O)N1CCCCc1ccccc1 | 57.3
Nc1ccc2c3c(cccc13)C(=O)N(Cc1cncnc1)C2=O | 67.1
O=C1c2cccc3c(Br)ccc(c23)C(=O)N1Cc1ccon1 | 42.3
O=C1c2cccc3cccc(c23)C(=O)N1Cc1cncnc1 | 221
O=C1c2cccc3c(Br)ccc(c23)C(=O)N1Cc1ccccn1 | 148
O=C1c2cccc3c(Br)ccc(c23)C(=O)N1Cc1ncccn1 | 91.7

Results, then the compound that gave them:

IC50 [nM] | SMILES
30 | O=C1c2cccc3c(Br)ccc(c23)C(=O)N1Cc1ccc2ncccc2c1
22.7 | O=C1c2cccc3c(Br)ccc(c23)C(=O)N1Cc1ccncn1
19.2 | O=C1c2cccc3c(Br)ccc(c23)C(=O)N1CC1CC1
17.6 | O=C1c2cccc3c(Br)ccc(c23)C(=O)N1Cc1cc[nH]n1
16.8 | O=C1c2cccc3c(Br)ccc(c23)C(=O)N1CCCc1ccccc1
12 | O=C1c2cccc3c(Br)ccc(c23)C(=O)N1CC1Oc2ccccc2O1
11.7 | O=C1c2cccc3c(Br)ccc(c23)C(=O)N1CC1CCCC1
7.99 | O=C1c2cccc3c(Br)ccc(c23)C(=O)N1CC1CCCCC1
5.63 | CCN1C(=O)c2cccc3c(Br)ccc(c23)C1=O
5.36 | O=C1c2cccc3c(Br)ccc(c23)C(=O)N1CCc1ccccc1
5.32 | CCN1C(=O)c2cccc3cc(Br)cc(c23)C1=O
3.64 | O=C1c2cccc3c(Br)ccc(c23)C(=O)N1CC1CCC1
3.52 | CCN1C(=O)c2cccc3ccc(Br)c(c23)C1=O
3.42 | O=C1c2cccc3c(Br)ccc(c23)C(=O)N1Cc1cccs1
1.95 | O=C1c2cccc3c(Br)ccc(c23)C(=O)N1Cc1ccccc1
1.81 | O=C1c2cccc3c(Br)ccc(c23)C(=O)N1Cc1cccnc1
1.42 | O=C1c2cccc3c(Br)ccc(c23)C(=O)N1Cc1ccncc1
0.39 | O=C1c2cccc3c(Br)ccc(c23)C(=O)N1Cc1ccc[nH]1
0.21 | O=C1c2cccc3c(Br)ccc(c23)C(=O)N1Cc1cn[nH]c1
0.04 | O=C1c2cccc3c(Br)ccc(c23)C(=O)N1Cc1cncnc1

system: NCI-H460; assay: Anti-cancer activity of human PTX-resistant NCI-H460 cells incubated for 48 hrs by CCK8 assay; type: functional, cell-based; conditions: NCI-H460, 48 h

IC50 [nM] | SMILES
633 | CC(=O)O[C@H]1C(=O)[C@@]2(C)[C@H]([C@H](OC(=O)c3ccccc3)[C@]3(O)C[C@H](OC(=O)[C@H](O)[C@@H](NC(=O)c4ccccc4)c4ccccc4)C(C)=C1C3(C)C)[C@]1(OC(C)=O)CO[C@@H]1C[C@@H]2O [PACLITAXEL]

system: not listed separately; assay: Solubility in water by HPLC-UV analysis; type: physicochemical; conditions: not given

solubility [µg/mL] | SMILES
103 (≈ 340 µM) | CCN1C(=O)c2cccc3c(Br)ccc(c23)C1=O
262 | Cl.O=C1c2cccc3c(Br)ccc(c23)C(=O)N1Cc1cncnc1

biological target: T1, Cytochrome P450 1B1; assay: Inhibition of human CYP1B1 over-expressed in CHO cells preincubated for 3 hrs followed media replacement containing estradiol without compound measured after 3 hrs; type: cell-based; conditions: not given

IC50 [nM] | SMILES
0.47 | O=C1c2cccc3c(Br)ccc(c23)C(=O)N1Cc1cncnc1

system: HEK-293T; assay: Cytotoxicity against HEK293T cells expressing AhR/luc incubated for 48 hrs by CCK8 assay; type: toxicity, cell-based; conditions: human

SMILES | Activity
O=C1c2cccc3c(Br)ccc(c23)C(=O)N1Cc1cncnc1 | Non-Toxic

biological target: T1, Cytochrome P450 1B1; assay: Mixed inhibition of recombinant human CYP1B1 using 7-ER as substrate in presence of NADPH by fluorescence based assay; conditions: not given

Ki [nM] | SMILES
0.0217 | O=C1c2cccc3c(Br)ccc(c23)C(=O)N1Cc1cncnc1

biological target: T1, Cytochrome P450 1B1; assay: Inhibition of recombinant human CYP1B1 using 7-ER as substrate measured after 33 mins in presence of NADPH by fluorescence based assay; conditions: 0.55 h

inhibition (INH) | SMILES
Not Active | O=C1c2cccc3c(Br)ccc(c23)C(=O)N1Cc1cncnc1
